# Data published in patent US4758560A, “Phenyl-(3-hexamethyleneiminopropyl)-ketone” (priority 1985, dated 1988).
# Like-named read-outs stand apart in the source and are kept apart here.
# Tests used:
# femoral artery [1] = assay: Comparative assays: femoral vasodilating action (MVD) in nembutal-anesthetized dogs, I.D. route; type: in vivo; parameters: key to MVD (minimum dose inducing a femoral vasodilating action): (g): no vasodilating action per I.D. route; details: for minimal effective dose: Canis lupus familiaris, intraduodenal, read-out: MVD (minimum dose inducing in nembutal-anesthetized dogs a femoral vasodilating action); for therapeutical index (MVD/LD50 ratio): MVD I.D. dogs / LD50 I.V. mice
# Source text: (e) minimum dose inducing in nembutalanesthetized dogs a femoral
# vasodilating action (tested products being administered per I.D. route).
# in vivo = details: mouse, iv, LD-50 I.V. mice
# mice [2] = assay: Toxicity in mice, intraperitoneal route; type: in vivo
# [3] = system: nembutal-anesthetized dogs; assay: Cardiovascular study in nembutal-anesthetized dogs, intraduodenal administration (then I.V.); type: in vivo; details: for minimal effective dose: Canis lupus familiaris, intraduodenal
# Description: (§1) The study of the cardiovascular properties has been performed on nembutal-anesthetized dogs, CRL 41 339 being administered intra-duodenallyin solution in physiological saline (bidistilled water containing 9 g/l of NaCl) at pH 7.5 (the maximum concentration of CRL 41 339 used being of 32.4 mg/ml).
# (§2) Three dogs (average weight: 14.3 kg), anesthetized with nembutal, receive CRL 41 339 by intraduodenal administration at successive doses of 0.1 mg/kg, 0.5 mg/kg, 1 mg/kg, 2.5 mg/kg, 5 mg/kg and 10 mg/kg, then two of these dogs receive a supplemental dose of CRL 41 339 (10 mg/kg) by intravenous administration.
# (§3) The arterial blood pressure, the heart rate, the blood flow through the femoral artery, the blood flow through the vertebral artery and the rectal and cutaneous temperatures are measured.
# isoprenaline = assay: Effects of isoprenaline after CRL 41 339 in anesthetized dogs; type: in vivo
# Description: as §1, §2, §3
# with 1 μg/kg of isoprenaline, the diastolic blood pressure changes from 117 mm Hg (i.e. about 1.5×10^4 Pa) to 37 mm Hg (i.e. about 4.9×10^3 Pa) after CRL 41 339, instead of changing from 144 mm Hg (i.e. about 1.9×10^4 Pa) to 36 mm Hg (i.e. about 4.8×10^3 Pa) in the control animals (i.e. anesthetized dogs receiving only isoprenaline), and the heart rate changes from 175 beats/minute to 238 beats/minute after CRL 41 339, while in the control animals said heart rate increases from 188 beats/minute to 253 beats/minute.
# noradrenaline = assay: Noradrenaline-induced hypertension after CRL 41 339 in anesthetized dogs; type: in vivo; details: for systolic blood pressure with noradrenaline: 2 μg/kg noradrenaline after 19.1 mg/kg I.D. accumulated; for systolic blood pressure before noradrenaline: after 19.1 mg/kg I.D. accumulated
# Description: as §1, §2, §3
# It is also observed that the noradrenaline-induced hypertension is reduced by CRL 41 339 (at an accumulated dose of 19.1 mg/kg I.D.):
# with 2 μg/kg of noradrenaline the systolic blood pressure increases from 160 mm Hg (i.e. about 2.1×10^4 Pa) to 253 mm Hg (i.e. about 3.3×10^4 Pa) after administration of CRL 41 339 at an accumulated dose of 19.1 mg/kg I.D., while in the control animals, (anesthetized dogs receiving only noradrenaline) the blood systolic pressure increases from 181 mm Hg (i.e. about 2.4×10^4 Pa) to 301 mm Hg (i.e. about 4×10^4 Pa).
# adult human beings = assay: Clinical assays in adult human beings; type: in vivo; details: arteritis manifestations and ulcers of arterial or venous origin in lower limbs
# Source text: In clinical trials, good results were obtained on adult human beings after administration of CRL 41 339 as vasodilating agent, in particular in the treatment of (i) arteritis manifestations in lower limbs, and (ii) ulcers of arterial or venous origin in lower limbs.
# [4] = system: rabbit ear microcirculation; assay: Action on rabbit ear microcirculation; type: in vivo; details: gastric route, awakened Half Top rabbits
# Description: […] in an aqueous solution at pH 6.5 (prepared extemporaneously) is administered by gastric route to Half Top rabbit batches (3 males, average weight: […]; and 3 females, average weight 3.3 kg) under a volume of 2 ml/kg. The very same animals used as control animals against themselves receive distilled water per gastric route, under the very same volume. The following parameters are measured: the terminal arteriole diameter, the terminal veinule diameter, the arteriolar pulsatility, the ear cutaneous temperature, the heart rate and the rectal temperature.
# femoral artery [5] = assay: Action on isolated dog vessels: femoral artery; details: n=5
# Description: (§4) Annuli of femoral arteriae and external saphenous veins of nembutal-anesthetized dogs are cut off and placed into aerated (O2 : 96%; CO2 : 4%, by volume) Krebs-Henseleit, kept at 37° C. and subjected to a 0.5 g stretching. These vessels are constricted either with noradrenaline 10^-5 M in the presence of propanolol 10^-6 M, or with KCl 50 mM in the presence of phentolamine 3×10^-6 M. CRL 41 339 is tested at accumulated doses.
# external saphenous vein = assay: Action on isolated dog vessels: external saphenous vein; details: n=4
# Description: as §4
# [6] = system: perfused hind quarters of rats; assay: Action on perfused hind quarters of rats; type: in vivo
# femoral artery [7] = assay: Comparison of salts: femoral artery flow in nembutal-anesthetized dogs, I.A. route; type: in vivo; details: Ex 1 at pH 6, Ex 2 and Ex 3 at pH 4, dose 0: 64, 64, 79, average of 5 assays
# Description: Three dogs anesthetized with nembutal and having an average weight of 12.9 kg are used as control animals vis-a-vis themselves, and are administered per I.A. route in the femoral artery with phenyl-(3-hexamethyleneiminopropyl)-ketone hydrochloride, fumarate and citrate (Ex 1, Code No.: CRL 41 339; Ex 2, Code No.: CRL 41 339A; and respectively Ex 3, code No.: CRL 41 339B), at equimolar doses.
# Solubility in water = type: physicochemical; details: white powder, very soluble in water
# mice [8] = system: mice
# [9] = 10 mg/kg I.V., supplemental to I.D. doses
# [10] = after accumulated dose of 19.1 mg/kg I.D.
# [11] = KCl 50 mM with phentolamine 3×10^-6 M
# [12] = noradrenaline 10^-5 M with propanolol 10^-6 M
# [13] = nembutal-anesthetized, noradrenaline-constricted
smiles,measurement,setting,value
"COc1cc(OC)c(C(=O)CCCN2CCCC2)c(OC)c1.Cl [A-1, (2,4,6-trimethoxyphenyl)-(3-pyrrolidinopropyl)-ketone hydrochloride]",minimal effective dose,"femoral artery [1]; dogs, I.D. route",6 mg/kg
same,therapeutical index (MVD/LD50 ratio),femoral artery [1],0.100
same,LD50,in vivo,60 mg/kg
"COc1cc(OC)c(C(=O)CCCN2CCCCCC2)c(OC)c1.Cl [A-2, (2,4,6-trimethoxyphenyl)-(3-hexamethyleneiminopropyl)-ketone hydrochloride]",minimal effective dose,"femoral artery [1]; dogs, I.D. route",5 mg/kg
same,therapeutical index (MVD/LD50 ratio),femoral artery [1],0.053
same,LD50,in vivo,96 mg/kg
COc1cc(OC)c(C(=O)CCCN2CCCCC2)c(OC)c1 [A-3],MVD (minimum dose inducing a femoral vasodilating action),"femoral artery [1]; dogs, I.D. route",(g)
"Cl.O=C(CCCN1CCCCCC1)c1ccccc1 [Ex 1, phenyl-(3-hexamethyleneiminopropyl)-ketone hydrochloride]",LD-30 (lethal dose for 30% of the treated animals),mice [2],about 128 mg/kg
same,LD-100 (minimum lethal dose for all the treated animals),mice [2],≤ 256 mg/kg
same,LD-O (maximum non-lethal dose),mice [2],higher than 64 mg/kg
same,blood pressure effect of supplemental I.V. dose,[3]; [9],hypotension
same,heart rate effect of supplemental I.V. dose,[3]; [9],bradycardia
same,minimal effective dose,"[3]; I.D., accumulated dose, read-out: accumulated dose as from which femoral artery flow is highly increased",4.1 mg/kg
same,minimal effective dose,"[3]; I.D., single successive dose, read-out: dose as from which femoral artery flow is highly increased",2.5 mg/kg
same,blood arterial pressure,[3]; I.D. route,does not modify
same,heart beat,[3]; I.D. route,does not modify
same,respiration rate,[3]; I.D. route,reduces the respiration rate
same,femoral artery flow,"[3]; I.D., as from the dose of 2.5 mg/kg (accumulated 4.1 mg/kg)",highly increases
same,diastolic blood pressure with isoprenaline,"isoprenaline; 1 μg/kg isoprenaline after CRL 41 339 (19.1 mg/kg I.D. accumulated), controls 36",37 mm Hg
same,heart rate with isoprenaline,"isoprenaline; 1 μg/kg isoprenaline after CRL 41 339 (19.1 mg/kg I.D. accumulated), controls 253",238 beats/minute
same,diastolic blood pressure with isoprenaline,"isoprenaline; 1 μg/kg isoprenaline after CRL 41 339 (19.1 mg/kg I.D. accumulated), controls about 4.8×10^3 Pa",about 4.9×10^3 Pa
same,diastolic blood pressure before isoprenaline,"isoprenaline; after CRL 41 339 (19.1 mg/kg I.D. accumulated), controls 144",117 mm Hg
same,heart rate before isoprenaline,"isoprenaline; after CRL 41 339 (19.1 mg/kg I.D. accumulated), controls 188",175 beats/minute
same,diastolic blood pressure before isoprenaline,"isoprenaline; after CRL 41 339 (19.1 mg/kg I.D. accumulated), controls about 1.9×10^4 Pa",about 1.5×10^4 Pa
same,effects of isoprenaline as regards the diastolic blood pressure,isoprenaline; [10],not modified
same,effects of isoprenaline as regards the heart rate,isoprenaline; [10],slightly reduced
same,systolic blood pressure with noradrenaline,noradrenaline; controls 301,253 mm Hg
same,systolic blood pressure with noradrenaline,noradrenaline; controls about 4×10^4 Pa,about 3.3×10^4 Pa
same,noradrenaline-induced hypertension,noradrenaline; accumulated dose of 19.1 mg/kg I.D.,reduced
same,systolic blood pressure before noradrenaline,noradrenaline; controls 181,160 mm Hg
same,systolic blood pressure before noradrenaline,noradrenaline; controls about 2.4×10^4 Pa,about 2.1×10^4 Pa
same,vasodilating activity compared with reference compounds,"femoral artery [1]; I.D. route, vs LL 1656 and CRL 41 080",more active as a vasodilating substance per introduodenal route
same,therapeutical index (MVD/LD50 ratio),femoral artery [1],0.032
same,superiority as regards peripheral vasodilating activity,"femoral artery [1]; vs A-1, A-2, A-3",superiority
same,"clinical trials, as vasodilating agent",adult human beings,good results
same,arteriolar pulsatility,[4],stronghly increases
same,arteriolar pulsatility/heart rate ratio,[4],stronghly increases
same,duration of terminal arteriole dilation,[4],0.5 h
same,ear cutaneous temperature,[4],important and lasting increase
same,heart rate,[4],without modifying the heart rate
same,terminal arteriole diameter,[4],moderately dilates
same,veinular diameter,[4],no action
same,IC50,"femoral artery [5]; Canis lupus familiaris, noradrenaline 10^-5 M with propanolol 10^-6 M, read-out: CI-50 (molar concentration which reduces of 50% the contraction), artery",5.9 µM
same,action on femoral artery constriction induced by KCl,femoral artery [5]; [11],no action
same,action on artery constricted by noradrenaline,femoral artery [5]; [12],slakening
same,IC50,"external saphenous vein; Canis lupus familiaris, noradrenaline 10^-5 M with propanolol 10^-6 M, read-out: CI-50 (molar concentration which reduces of 50% the contraction), vein",130 µM
same,action on external saphenous vein constriction induced by KCl,external saphenous vein; [11],no action
same,action on vein constricted by noradrenaline,external saphenous vein; [12],slakening
same,anti-noradrenaline activity,[6]; believed to be involved in the vasodilating activity,important anti-noradrenaline activity
same,duration of vasodilating effect,[6]; [13],increases with the dose
same,vasodilating effect on hind quarters of rats,[6]; [13],important vasodilating effect
same,Femoral flow,femoral artery [7]; dose 10^-5 M,166 mL/min
same,Femoral flow,femoral artery [7]; dose 10^-6 M,117 mL/min
same,Femoral flow,femoral artery [7]; dose 10^-7 M,83 mL/min
same,solubility,Solubility in water,100 mg/mL
same,superiority as regards toxicity,"mice [8]; mouse, in vivo",superiority
same,toxicity compared with reference compounds,mice [8]; vs LL 1656 and CRL 41 080,less toxic
same,mutagenic activity,Salmonella typhimurium,devoid of mutagenic activity
same,LD50,in vivo,128 mg/kg
"O=C(CCCN1CCCCCC1)c1ccccc1.O=C(O)/C=C/C(=O)O [Ex 2, phenyl(3-hexamethyleneiminopropyl)-ketone fumarate]",Femoral flow,femoral artery [7]; dose 10^-5 M,168 mL/min
same,Femoral flow,femoral artery [7]; dose 10^-6 M,117 mL/min
same,Femoral flow,femoral artery [7]; dose 10^-7 M,76 mL/min
"O=C(CCCN1CCCCCC1)c1ccccc1.O=C(O)CC(O)(CC(=O)O)C(=O)O [Ex 3, phenyl(3-hexamethyleneiminopropyl)-ketone citrate]",Femoral flow,femoral artery [7]; dose 10^-5 M,197 mL/min
same,Femoral flow,femoral artery [7]; dose 10^-6 M,127 mL/min
same,Femoral flow,femoral artery [7]; dose 10^-7 M,90 mL/min
